According to a melting point compilation (Tetko et al.; mined from patent text by program, amines drawn as free bases though some values may be those of a salt):

Point of comparison: `C=CCC(CCC=NO)C1=C(O)CC(c2ccc(N)cc2)CC1=O` (stereo not given), melting point 92 °C. Against it:
- O=c1[nH]c(=O)n(C2CC(O)C(COC3(c4ccccc4)c4ccccc4Oc4ccccc43)O2)cc1I (stereo not given) — higher, 200 to 202 °C
- COc1ccc2[nH]cc(C3=C(c4c[nH]c5ccc(OC)cc45)C(=O)N(C)C3=O)c2c1 — higher, > 290 °C
- O=Cc1cccc(CSCCNC(=O)c2c(Cl)cccc2Cl)c1 — lower, 63 to 65 °C
- O=C(O)COCC(=O)CCCCCCCCCC(=O)NONC(=O)O — lower, 64 to 67 °C
- CNC1=NS(=O)(=O)N=C1NCCSCc1nc[nH]c1C — higher, 98 to 110 °C
- COc1ccc(-c2cc(CN3CCN(C)CC3)c(=O)n(CC=Cc3ccc(Cl)cc3)n2)cc1F — higher, 124 to 126 °C
- Cc1ccc(N(Cc2cccnc2)S(C)(=O)=O)c(C)c1 — lower, 62 to 65 °C
- C=CCn1c(C)nc2c3c(ccc21)[C@@H](OCCF)[C@H](O)[C@@H](c1ccccc1)O3 — higher, 117 °C
- COc1cccc2c1C(=O)N(CC(=O)N1c3ccccc3N(Cc3ccccc3)C(=O)[C@H]3CCC[C@H]31)C2=O (relative stereo) — higher, 247 to 248 °C
- Fc1ccc(CNc2nc(OCC(F)(F)F)nc(Oc3cccc(C(F)(F)F)c3)n2)cc1 — higher, 107 to 109 °C
- CN1CCN(c2ccc(Br)cc2)CC1 — lower, 78 to 80 °C
- CN(C)CCNc1ccc([N+](=O)[O-])c2sc3ccc(O)cc3c(=O)c12 — higher, > 300 °C
- CCCCc1nc(C(F)(F)F)c(C(=O)OCC)[nH]1 — lower, 51 to 53 °C
- Oc1cc(O)c(-c2nc(-c3ccccc3)nc(-c3ccccc3)n2)cc1Cl — higher, 255 to 265 °C
- COc1ccc(C(=O)O)c2c1oc1ccccc12 — higher, 280 °C
- COc1cc2cc[nH]c2cc1OCCCN1CCC(c2noc3cc(F)ccc23)CC1 — higher, 156 to 158 °C
- CCOC(=O)c1c(C)nn2ccc3c(c12)CCO3 — higher, 173 to 174 °C
- Cc1cc(C)n(-c2nc(Nc3ccccc3)c3ccccc3n2)n1 — higher, 262 to 265 °C
- CCOc1c(N)cc(-c2cccc3ccccc23)c2nc(C(=O)O)ccc12 — higher, 182 to 184 °C
- CC(C)(C)c1csc(NC(=O)c2ccccc2)c1C#N — higher, 130 °C
- C[C@]12CCC(=O)N[C@@H]1CCc1cc(-c3ccccc3Cl)ccc12 — higher, 189 to 191 °C
- CC(=O)C(=Cc1cc(O)c(O)c(C(F)(F)F)c1)C(C)=O — higher, 198 to 205 °C
- Cc1ccc2c(c1)C=Cc1cc(C(C)C)ccc1C2c1cn(Cc2ccc(C(=O)O)o2)c(=O)[nH]c1=O (stereo not given) — higher, 150 to 160 °C
- O=c1c2cccnc2n(-c2cccc([N+](=O)[O-])c2)c(=O)n1CCO — higher, 212 to 213 °C
- CC(=Cc1cccc(F)c1)C(=O)O — higher, 95 to 97 °C
- COCCOc1ccc(CCCOC(=O)NS(=O)(=O)c2ccccc2)c(Oc2ncc(C(F)(F)F)cc2Cl)c1 — higher, 174 to 177 °C
- COc1ccc(C=CC=C(C#N)C#N)cc1 — higher, 160 °C
- CCCN(C1=C(O)CC(C2CCCC2)(C2CCCC2)OC1=O)c1cccc(NS(=O)(=O)c2ccccn2)c1 — higher, 105 to 107 °C
- COC(=O)c1cn(-c2ccccc2Oc2ccc(C)cc2O)nn1 — higher, 153 to 155 °C
- COc1cc(N)c(Cl)cc1C(=O)NC1CCN(CC2CCN(C(=O)Nc3ccccc3)CC2)CC1 — higher, 212 to 214 °C
- CCOc1nn(Cc2ccc(OCc3cccnc3)c(OC)c2)cc1CCC(=O)O — higher, 124 to 125 °C
- Cc1cc(C#N)cc(C(=O)Nc2ccnc(F)c2)n1 — higher, 246 °C
- Cc1c(C)c2c(c(C)c1NC(=O)c1ccc(F)cc1)C(c1ccc(F)cc1)C(C)(C)O2 (stereo not given) — higher, 140 to 142 °C
- CC(=O)OC1=CCC2C3CC=C4CC(OC(C)=O)CCC4(C)C3CCC12C (stereo not given) — higher, 144 to 150 °C
- CNC(=O)Nc1cc(-c2c(-c3ccc(F)c(C)c3)nc3cccnn23)ccn1 — higher, 225 to 227 °C
- CCOC(Cc1ccc(OCCN2COc3ccccc3C2=O)cc1)C(=O)O (stereo not given) — higher, 103 to 105 °C
- c1coc(Cn2c(NC3CCN(CCOc4nccs4)CC3)nc3ccccc32)c1 — higher, 136 °C
- CCC1C(=O)Nc2ccc(-c3ccc(C#N)n3C)cc21 (stereo not given) — higher, 145 to 147 °C
- CNC(=O)NC(=O)C(CC1CCCC1)c1ccc(S(C)(=O)=O)c([N+](=O)[O-])c1 (stereo not given) — higher, 241 to 242 °C
- Fc1ccc(C2(c3ccc(F)cc3)CNC(c3cnccn3)=N2)cc1 — higher, 144 to 146 °C
- Nc1ccc([N+](=O)[O-])cc1S(=O)(=O)N1CCOCC1 — higher, 204 to 206 °C
- COc1cc(Br)c(OC)c2c1C=C([N+](=O)[O-])CC2 — higher, 121 to 123 °C
- CN(c1cccc2cc(C3=NCC(CN4CCS(=O)(=O)CC4)S3)[nH]c12)S(=O)(=O)c1cccs1 (stereo not given) — higher, 242 °C
- CN(C)C1(c2cccc(O)c2)CCC(=O)CC1 — higher, 175 to 177 °C
- O=C1N[C@H](C(=O)O)CSCCCCCCCCC1CS (stereo not given in full) — higher, 165 to 168 °C
- NNC(=O)Cc1cc(C(=O)c2ccc(I)c(N)c2)sc1-c1ccccc1 — higher, 159 to 165 °C
- C=CCOC(=O)C(Cc1ccc2ccc3cccc4ccc1c2c34)(Cc1ccc2ccc3cccc4ccc1c2c34)C(=O)OCC=C — higher, 178 to 180 °C
- Cc1cc(C)cc(CCCn2c(=O)c3c(Cl)cc(Cl)cc3n(Cc3ccccc3)c2=O)c1 — higher, 144 to 147 °C
- CON=C(Nc1nc(C)cc(C)n1)NS(=O)(=O)c1ccccc1-c1ccccc1 — higher, 190 to 192 °C
- CCC(=O)c1c(C)[nH]c(-c2ccccc2)c1N — higher, 166 to 168 °C
- Cc1ccc2c(c1)N=C(N1CCN(C)CC1)c1c(sc3ccccc13)N2 — higher, 184 to 186 °C
- CS(=O)c1ccc2c(c1)OC(C)(C)O2 (stereo not given) — lower, 87 to 88 °C
- COc1ccc(C(=O)N2CCCC2=O)cc1OCc1ccccc1 — the same, 92 °C
- CC1=C(c2ccc(O)cc2)CCC(=O)N1 — higher, 197 to 200 °C
- CNC(=S)Nc1ccccc1N1CCOCC1 — higher, 115 to 116 °C
- O=C(O)Cc1ccc(OCCNC(=O)C2Cc3ccccc3N2S(=O)(=O)c2ccc(-c3ccc(Cl)cc3)c(C(F)(F)F)c2)cc1 (stereo not given) — the same, 92 °C
- CC(C)C[C@H](NC(=O)c1cc2ccccc2o1)C(=O)N[C@H]1CC[C@@H](C)N(S(=O)(=O)c2ccccn2)CC1=O — higher, 151 to 153 °C
- Nc1nc(SCc2ccccn2)nc(Cl)c1Br — higher, 119 to 120 °C
- N#Cc1ccccc1/C=C/C(=O)Nc1cc(Cl)cc(NC(=N)c2ccccc2)c1 — higher, 220 to 221 °C
- COc1ccc(-c2cccc3c(C(C)C)c(C)nn23)c(Cl)c1 — higher, 112 to 115 °C
- Cn1c(=O)n(CCO)n(CCO)c1=O — higher, 126 to 127 °C
- O=C(O)c1cc2cc(F)c(Cl)cc2nc1Cl — higher, 230 °C
- CNS(=O)(=O)Cc1ccc(NN=CCCC#N)cc1 — higher, 124 to 125 °C
- [N-]=[N+]=Nc1cnn(-c2cc(-c3ccnc(Nc4cccc(Cl)c4)n3)ccn2)c(=O)c1Cl — higher, 184 to 186 °C
- COc1cc(N)ccc1S(=O)(=O)Nc1ccccc1C — higher, 189 to 191 °C
- Cc1ccc(NC(=O)Cc2ccccc2)cc1 — higher, 119 to 120 °C
- COC=C(C(=O)OC)c1ccccc1CON=C(C)c1noc2ccccc12 — higher, 97 to 98 °C
- CCN(CC)C(=O)c1cc(C)ccc1-c1ccc(OC)cc1 — higher, 113 to 114 °C
- CC(C)(C)OC(=O)NC(CC(=O)O)c1ccc(Cl)c(Cl)c1 (stereo not given) — higher, 128 °C
- CCN(CC)c1c(C(=O)O)ccc(OC)c1OC — lower, 57 to 62 °C
- O=[N+]([O-])c1cc(Cl)c(Br)cc1Cl — lower, 50 to 53 °C
- CC(C)(C)C(=O)C(O)C(OS(=O)(=O)C(F)(F)F)C1OC(O)(C(=O)C(C)(C)C)C(O)(C(=O)C(C)(C)C)C1(O)C(=O)C(C)(C)C (stereo not given) — higher, 109 to 112 °C
- C#CCc1c(C)nc2c(OCc3ccccc3S(C)(=O)=O)cccn12 — higher, 179 to 180 °C
- NC(=O)C(F)(F)Cc1c[nH]c([N+](=O)[O-])n1 — higher, 150 to 152 °C
- COc1c(N2CCC(n3nncc3C)C2)c(F)cc2c(=O)c(C(=O)O)cn(C3CC3)c12 (stereo not given) — higher, 226 to 228 °C
- Nc1cccc(Nc2nccc(-c3cccnc3)n2)c1 — lower, 89 to 90 °C
- Cc1cc(C)c(C(=O)c2ccc(-c3ccccc3)cc2)c(C)c1 — higher, 111 to 112 °C
- O=C1c2ccccc2C(=O)N1CCn1nc(O)c2[nH]c3cc(Cl)ccc3c(=O)c2c1=O — higher, 349 to 352 °C
- CCOc1cc([C@H]2COCC[C@H]2NC(=O)c2ccc(C(=O)OC)cc2)ccc1OC — higher, 166 to 168 °C
- CCc1cc(OC)c(-c2csc(NC(=O)c3cc4ccccc4[nH]3)n2)c(OC)c1 — higher, > 260 °C
- COC(=O)c1csc(CCCc2cc3c(=O)[nH]c(N)nc3[nH]2)c1 — higher, 182 to 183 °C
- Cc1cccc(C(=O)Nc2ccc(N3CCN(Cc4cccc(C#N)c4)CC3)cc2)c1-c1ccc(C(C)C)cc1 — higher, 137 °C
- Cc1cccc(-c2n[nH]cc2-c2ccnc(-c3ccc(Cl)cc3)c2)n1 — higher, 190 °C
- COc1ccc(-c2[nH]cnc2-c2cc(OC)c([N+](=O)[O-])c(OC)c2)cc1O — higher, 148 to 149 °C
- O=[N+]([O-])c1cc(Br)cc(F)c1O — lower, 62 °C
- CC(C)(O)C#Cc1ccc(Br)cc1 — lower, 62 °C
- CCc1cccc(C)c1CNc1cc(C(=O)N2CCOCC2)cc2c1nc(C)n2C — higher, 229 to 231 °C
- CC(C)CCCOC1CCC2C3C(=O)C=C4CC(O)CCC4(C)C3CCC12C (stereo not given) — higher, 134 °C
- O=C(NC(=O)N1CCCCC1)c1cc(Cl)nc(Cl)c1 — higher, 183 to 185 °C
- COC(=O)C(=O)c1ccc(OCCOc2ccc3c(c2)CCCC3)cc1 — higher, 95 to 99 °C
- CCC(C(C)=CC(CNC(=O)c1nc[nH]n1)=NO)[N+](=O)[O-] (stereo not given) — higher, 131 to 136 °C
- COc1ccc(-c2cn3ccccc3n2)cc1 — higher, 131 to 134 °C
- CC(C)(O)[C@H](NC(=O)C(Cl)(Cl)Cl)c1ccccc1 — higher, 97 °C
- COc1cc(CN2CCNC(CO)C2)cc(OC)c1OC (stereo not given) — higher, 93 °C
- CCOc1ccc2[nH]c(=O)n(C3CCCCCC3)c2c1 — higher, 204 °C
- O=C(O)c1cn([C@@H]2C[C@@H]2F)c2c(Cl)c(Cl)ccc2c1=O — higher, 198 to 201 °C
- Cc1cc(C)c(-c2ccc3c(=O)c(C(=O)O)cn(C4CC4)c3c2C)cn1 — higher, 217 °C
- O=C(Cc1ccc(O)c(Cl)c1)Oc1cc(Cl)c(Cl)cc1Cl — lower, 77 °C
- COC(=O)C(=O)c1ccc(OCCOc2ccc(Cl)cc2)cc1 — higher, 103 to 105 °C
